# Laboratory results reported in ChEMBL document CHEMBL4257514, “Design and synthesis of novel 1,3,5-triphenyl pyrazolines as potential anti-inflammatory agents through allosteric inhibition of protein kinase Czeta (PKCζ)” (Medchemcomm, 2018).
# The source made the active and inactive calls. The calls are words filed in the database; no cut-off is given here.
# Target: T1, Protein kinase C zeta type (Homo sapiens, UniProt Q05513)
# T1 sequence (Q05513 whole entry): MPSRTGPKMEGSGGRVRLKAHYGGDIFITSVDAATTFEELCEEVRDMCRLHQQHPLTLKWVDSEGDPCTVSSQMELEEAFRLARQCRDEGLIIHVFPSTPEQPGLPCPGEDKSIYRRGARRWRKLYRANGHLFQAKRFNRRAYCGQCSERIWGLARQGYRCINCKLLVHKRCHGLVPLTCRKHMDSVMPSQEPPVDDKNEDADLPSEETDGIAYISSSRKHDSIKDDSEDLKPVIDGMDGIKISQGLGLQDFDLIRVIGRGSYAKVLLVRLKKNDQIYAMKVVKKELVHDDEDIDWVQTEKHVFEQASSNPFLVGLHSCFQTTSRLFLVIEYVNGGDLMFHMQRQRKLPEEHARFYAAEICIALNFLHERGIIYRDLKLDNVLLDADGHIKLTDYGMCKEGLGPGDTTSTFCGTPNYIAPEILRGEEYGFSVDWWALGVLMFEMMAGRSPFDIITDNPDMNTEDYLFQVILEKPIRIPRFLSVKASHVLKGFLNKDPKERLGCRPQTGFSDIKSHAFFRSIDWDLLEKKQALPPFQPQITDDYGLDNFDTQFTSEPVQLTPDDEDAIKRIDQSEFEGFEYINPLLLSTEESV
# Assay: Inhibition of recombinant GST-fused PKCzeta (unknown origin) expressed in HEK293 cells using myelin basic protein as substrate measured after 40 mins in presence of [gamma32P]ATP by phosphorimaging analysis
# Settings: not given
row,IC50 [nM],SMILES
1,< 100,Oc1ccc(C2=NN(c3ccc(Cl)cc3)C(c3cccc(Cl)c3)C2)cc1 (stereo not drawn)

# Target: Protein kinase C beta type (Homo sapiens) (UniProt P05771)
# Sequence (P05771 2-671 limits assumed): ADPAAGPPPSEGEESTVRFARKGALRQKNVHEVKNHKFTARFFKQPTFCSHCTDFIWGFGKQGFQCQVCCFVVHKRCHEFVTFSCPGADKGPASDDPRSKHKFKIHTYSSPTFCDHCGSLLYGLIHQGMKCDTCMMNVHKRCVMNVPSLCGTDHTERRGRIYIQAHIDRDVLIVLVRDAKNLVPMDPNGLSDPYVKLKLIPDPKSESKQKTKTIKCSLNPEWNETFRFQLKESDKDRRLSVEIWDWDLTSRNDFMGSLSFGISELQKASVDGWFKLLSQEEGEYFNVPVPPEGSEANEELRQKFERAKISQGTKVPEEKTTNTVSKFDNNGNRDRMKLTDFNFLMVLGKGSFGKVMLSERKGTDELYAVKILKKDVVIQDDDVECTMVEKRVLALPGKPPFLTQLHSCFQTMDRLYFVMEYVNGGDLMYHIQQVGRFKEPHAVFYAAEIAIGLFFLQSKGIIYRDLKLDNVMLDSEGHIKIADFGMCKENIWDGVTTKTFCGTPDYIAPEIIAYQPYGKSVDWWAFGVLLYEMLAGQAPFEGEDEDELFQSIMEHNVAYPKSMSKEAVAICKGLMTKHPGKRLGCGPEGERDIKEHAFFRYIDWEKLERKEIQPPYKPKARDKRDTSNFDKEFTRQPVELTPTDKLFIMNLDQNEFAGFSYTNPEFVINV
# Assay: Inhibition of PKCbeta1 (unknown origin) at 10 uM
# Settings: not given
row,inhibition,SMILES
1,inactive,Oc1ccc(C2=NN(c3ccc(Cl)cc3)C(c3ccc(Cl)cc3)C2)cc1O (stereo not drawn)

# Target: T2, Protein kinase C iota type (Homo sapiens) (UniProt P41743)
# T2 sequence (whole entry): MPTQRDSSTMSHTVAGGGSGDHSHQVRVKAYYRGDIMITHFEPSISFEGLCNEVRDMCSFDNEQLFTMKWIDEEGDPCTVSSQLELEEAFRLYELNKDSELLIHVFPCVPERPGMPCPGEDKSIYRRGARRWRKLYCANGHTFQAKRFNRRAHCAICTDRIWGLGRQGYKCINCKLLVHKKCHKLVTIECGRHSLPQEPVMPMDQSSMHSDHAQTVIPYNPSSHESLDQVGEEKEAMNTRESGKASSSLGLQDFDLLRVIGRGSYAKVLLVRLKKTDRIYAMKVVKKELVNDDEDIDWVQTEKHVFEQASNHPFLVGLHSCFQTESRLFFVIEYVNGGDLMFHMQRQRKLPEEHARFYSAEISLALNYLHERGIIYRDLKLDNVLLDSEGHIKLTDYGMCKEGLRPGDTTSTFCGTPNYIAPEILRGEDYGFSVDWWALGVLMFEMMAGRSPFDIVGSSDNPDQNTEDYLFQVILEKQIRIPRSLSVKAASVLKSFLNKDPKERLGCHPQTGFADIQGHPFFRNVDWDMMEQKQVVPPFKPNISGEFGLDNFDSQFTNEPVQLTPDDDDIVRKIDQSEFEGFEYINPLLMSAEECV
# Assay: Inhibition of recombinant GST-fused PKCiota (unknown origin) expressed in HEK293 cells at 20 uM using myelin basic protein as substrate measured after 40 mins in presence of [gamma32P]ATP by phosphorimaging analysis relative to control
# Settings: not given
row,SMILES,inhibition [%]
1,Oc1ccc(C2=NN(c3ccccc3Cl)C(c3ccccc3Cl)C2)cc1 (stereo not drawn),30.5
2,Oc1ccc(C2=NN(c3ccc(Cl)cc3)C(c3cccc(Cl)c3)C2)cc1 (stereo not drawn),18.6

# The remaining lines, values ahead:
row,inhibition [%],SMILES
1,24.9,Oc1ccc(C2=NN(c3ccc(Cl)cc3)C(c3ccc(Cl)cc3)C2)cc1 (stereo not drawn)
2,27.6,Oc1ccc(C2=NN(c3ccc(Cl)cc3)C(c3ccc(Cl)cc3)C2)cc1O (stereo not drawn)

# System: not listed separately
# Assay: Cytotoxicity against mouse RAW264.7 cells assessed as live cells at 7.5 uM after 20 hrs by MTT assay relative to control
# Assay type: cell-based
# Settings: read-out: Activity
row,SMILES,"viability at 20 h, 7.5 µM [%]"
1,Oc1ccc(C2=NN(c3ccc(Cl)cc3)C(c3ccc(Cl)cc3)C2)cc1 (stereo not drawn),99
2,Oc1ccc(C2=NN(c3ccc(Cl)cc3)C(c3ccc(Cl)cc3)C2)cc1O (stereo not drawn),94
3,Oc1ccc(C2=NN(c3ccccc3Cl)C(c3ccccc3Cl)C2)cc1 (stereo not drawn),92
4,Oc1ccc(C2=NN(c3ccc(Cl)cc3)C(c3cccc(Cl)c3)C2)cc1 (stereo not drawn),96

# System: RAW264.7
# Assay: Inhibition of LPS-induced nitric oxide production in mouse RAW264.7 cells at 7.5 uM measured after 20 hrs by griess assay relative to control
# Assay type: functional
# Settings: RAW264.7, 20 h
row,SMILES,inhibition at 7.5 µM [%]
1,Oc1ccc(C2=NN(c3ccc(Cl)cc3)C(c3ccc(Cl)cc3)C2)cc1 (stereo not drawn),62.4
2,COc1cc(/C=C/C(=O)CC(=O)/C=C/c2ccc(O)c(OC)c2)ccc1O [CURCUMIN],97
3,Oc1ccc(C2=NN(c3ccc(Cl)cc3)C(c3ccc(Cl)cc3)C2)cc1O (stereo not drawn),100
4,Oc1ccc(C2=NN(c3ccccc3Cl)C(c3ccccc3Cl)C2)cc1 (stereo not drawn),34
5,Oc1ccc(C2CC(c3ccccc3O)=NN2c2cccc(Cl)c2)cc1F (stereo not drawn),86
6,Oc1ccc(C2=NN(c3ccc(Cl)cc3)C(c3cccc(Cl)c3)C2)cc1 (stereo not drawn),34

# Target: Protein kinase C delta type (Homo sapiens) (UniProt Q05655)
# Sequence (Q05655 whole entry, looked up): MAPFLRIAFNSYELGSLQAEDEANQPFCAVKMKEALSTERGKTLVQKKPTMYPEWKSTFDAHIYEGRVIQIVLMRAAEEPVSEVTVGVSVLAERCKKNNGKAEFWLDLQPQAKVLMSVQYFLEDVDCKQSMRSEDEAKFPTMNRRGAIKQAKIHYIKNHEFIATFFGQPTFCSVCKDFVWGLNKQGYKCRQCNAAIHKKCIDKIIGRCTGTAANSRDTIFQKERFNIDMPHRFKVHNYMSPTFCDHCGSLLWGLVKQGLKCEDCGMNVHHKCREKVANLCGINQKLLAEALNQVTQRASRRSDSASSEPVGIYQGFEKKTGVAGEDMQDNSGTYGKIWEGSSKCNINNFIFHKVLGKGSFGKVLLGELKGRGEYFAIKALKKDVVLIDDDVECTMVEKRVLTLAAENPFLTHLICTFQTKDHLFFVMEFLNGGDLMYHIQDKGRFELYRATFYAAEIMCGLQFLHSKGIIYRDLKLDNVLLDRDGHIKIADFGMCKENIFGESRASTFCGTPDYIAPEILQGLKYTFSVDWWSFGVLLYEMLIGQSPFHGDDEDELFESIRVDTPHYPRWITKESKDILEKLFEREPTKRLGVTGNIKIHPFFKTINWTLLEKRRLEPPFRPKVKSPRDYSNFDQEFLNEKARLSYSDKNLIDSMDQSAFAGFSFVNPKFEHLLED
# Assay: Inhibition of PKCdelta (unknown origin) at 10 uM
# Settings: not given
row,inhibition,SMILES
1,inactive,Oc1ccc(C2=NN(c3ccc(Cl)cc3)C(c3ccc(Cl)cc3)C2)cc1O (stereo not drawn)

# System: RAW264.7
# Assay: Inhibition of LPS-induced nitric oxide production in mouse RAW264.7 cells measured after 20 hrs by griess assay
# Assay type: functional, cell-based
# Settings: RAW264.7, 20 h
row,IC50 [nM],SMILES
1,800,COc1cc(/C=C/C(=O)CC(=O)/C=C/c2ccc(O)c(OC)c2)ccc1O [CURCUMIN]
2,300,Oc1ccc(C2=NN(c3ccc(Cl)cc3)C(c3ccc(Cl)cc3)C2)cc1O (stereo not drawn)
3,2900,Oc1ccc(C2CC(c3ccccc3O)=NN2c2cccc(Cl)c2)cc1F (stereo not drawn)

# Target: Protein kinase C alpha type (Homo sapiens) (UniProt P17252)
# Assay: Inhibition of PKCalpha (unknown origin) at 10 uM
# Settings: not given
row,inhibition,SMILES
1,inactive,Oc1ccc(C2=NN(c3ccc(Cl)cc3)C(c3ccc(Cl)cc3)C2)cc1O (stereo not drawn)

# Target: T3, Protein kinase C epsilon type (Homo sapiens) (UniProt Q02156)
# T3 sequence (whole entry): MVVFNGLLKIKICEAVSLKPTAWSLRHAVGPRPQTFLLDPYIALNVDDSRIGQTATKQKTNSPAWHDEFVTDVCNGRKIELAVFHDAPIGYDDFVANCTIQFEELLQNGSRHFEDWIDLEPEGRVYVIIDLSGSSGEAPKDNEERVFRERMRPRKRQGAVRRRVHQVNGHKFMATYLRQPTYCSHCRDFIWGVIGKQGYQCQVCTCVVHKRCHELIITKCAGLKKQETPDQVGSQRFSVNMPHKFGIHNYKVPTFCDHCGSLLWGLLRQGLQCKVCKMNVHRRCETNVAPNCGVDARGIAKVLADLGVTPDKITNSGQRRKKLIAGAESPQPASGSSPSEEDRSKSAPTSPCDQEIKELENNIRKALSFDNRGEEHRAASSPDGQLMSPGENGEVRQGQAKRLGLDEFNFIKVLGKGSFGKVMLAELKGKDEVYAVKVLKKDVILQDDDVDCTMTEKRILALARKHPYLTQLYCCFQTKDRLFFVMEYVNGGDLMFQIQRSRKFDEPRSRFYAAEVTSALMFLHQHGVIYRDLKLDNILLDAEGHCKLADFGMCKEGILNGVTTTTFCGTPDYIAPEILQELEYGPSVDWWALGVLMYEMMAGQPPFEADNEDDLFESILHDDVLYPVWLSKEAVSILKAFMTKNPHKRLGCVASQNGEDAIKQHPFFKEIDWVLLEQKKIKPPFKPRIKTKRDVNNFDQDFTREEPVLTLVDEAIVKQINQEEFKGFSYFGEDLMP
# Assay: Inhibition of PKCepsilon (unknown origin) at 10 uM
# Settings: not given
row,inhibition [%],SMILES
1,11,Oc1ccc(C2=NN(c3ccc(Cl)cc3)C(c3ccc(Cl)cc3)C2)cc1O (stereo not drawn)

# Target: Protein kinase C gamma type (Homo sapiens) (UniProt P05129)
# Assay: Inhibition of PKCgamma (unknown origin) at 10 uM
# Settings: not given
row,inhibition,SMILES
1,inactive,Oc1ccc(C2=NN(c3ccc(Cl)cc3)C(c3ccc(Cl)cc3)C2)cc1O (stereo not drawn)

# Target: Protein kinase C theta type (Homo sapiens) (UniProt Q04759)
# Sequence (Q04759 whole entry, looked up): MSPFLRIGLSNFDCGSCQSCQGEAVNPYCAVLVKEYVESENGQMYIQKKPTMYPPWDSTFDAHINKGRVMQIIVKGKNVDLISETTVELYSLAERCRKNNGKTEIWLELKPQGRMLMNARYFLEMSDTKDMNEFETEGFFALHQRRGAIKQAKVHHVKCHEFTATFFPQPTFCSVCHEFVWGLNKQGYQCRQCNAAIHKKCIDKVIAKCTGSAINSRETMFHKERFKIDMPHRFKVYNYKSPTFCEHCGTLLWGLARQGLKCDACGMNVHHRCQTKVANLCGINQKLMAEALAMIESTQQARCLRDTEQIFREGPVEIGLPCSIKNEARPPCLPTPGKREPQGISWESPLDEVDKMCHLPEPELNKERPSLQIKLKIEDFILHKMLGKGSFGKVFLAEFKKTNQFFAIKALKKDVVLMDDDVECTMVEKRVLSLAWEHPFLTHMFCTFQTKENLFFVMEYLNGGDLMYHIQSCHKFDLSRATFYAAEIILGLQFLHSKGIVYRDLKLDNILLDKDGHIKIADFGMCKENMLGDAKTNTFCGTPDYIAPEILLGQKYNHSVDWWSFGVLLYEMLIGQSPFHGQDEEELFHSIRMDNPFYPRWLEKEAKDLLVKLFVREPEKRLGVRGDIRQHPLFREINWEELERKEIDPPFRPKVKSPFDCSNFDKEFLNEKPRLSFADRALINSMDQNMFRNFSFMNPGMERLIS
# Assay: Inhibition of PKCtheta (unknown origin) at 10 uM
# Settings: not given
row,inhibition,SMILES
1,inactive,Oc1ccc(C2=NN(c3ccc(Cl)cc3)C(c3ccc(Cl)cc3)C2)cc1O (stereo not drawn)

# Target: Protein kinase C eta type (Homo sapiens) (UniProt P24723)
# Sequence (P24723 whole entry): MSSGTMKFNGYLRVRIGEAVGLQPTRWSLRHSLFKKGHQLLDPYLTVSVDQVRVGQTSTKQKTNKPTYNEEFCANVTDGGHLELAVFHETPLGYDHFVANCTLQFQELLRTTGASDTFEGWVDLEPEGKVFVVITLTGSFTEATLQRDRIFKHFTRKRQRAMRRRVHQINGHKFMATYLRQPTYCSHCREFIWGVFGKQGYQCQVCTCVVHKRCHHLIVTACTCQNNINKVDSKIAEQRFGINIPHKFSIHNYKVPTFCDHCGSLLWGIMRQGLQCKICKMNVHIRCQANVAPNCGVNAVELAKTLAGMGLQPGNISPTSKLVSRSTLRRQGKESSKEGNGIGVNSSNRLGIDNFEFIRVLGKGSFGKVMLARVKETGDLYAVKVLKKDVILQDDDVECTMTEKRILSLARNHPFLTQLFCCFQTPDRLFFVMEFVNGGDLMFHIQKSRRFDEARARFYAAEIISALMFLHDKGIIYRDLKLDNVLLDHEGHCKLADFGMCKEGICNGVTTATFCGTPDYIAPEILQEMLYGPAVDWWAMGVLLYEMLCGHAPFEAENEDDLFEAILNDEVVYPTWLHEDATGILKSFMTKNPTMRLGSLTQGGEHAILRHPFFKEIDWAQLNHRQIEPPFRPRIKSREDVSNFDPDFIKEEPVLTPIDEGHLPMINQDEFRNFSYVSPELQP
# Assay: Inhibition of PKCeta (unknown origin) at 10 uM
# Settings: not given
row,inhibition,SMILES
1,inactive,Oc1ccc(C2=NN(c3ccc(Cl)cc3)C(c3ccc(Cl)cc3)C2)cc1O (stereo not drawn)

# Target: Serine/threonine-protein kinase N1 (Homo sapiens) (UniProt Q16512)
# Sequence (Q16512 2-942 limits assumed): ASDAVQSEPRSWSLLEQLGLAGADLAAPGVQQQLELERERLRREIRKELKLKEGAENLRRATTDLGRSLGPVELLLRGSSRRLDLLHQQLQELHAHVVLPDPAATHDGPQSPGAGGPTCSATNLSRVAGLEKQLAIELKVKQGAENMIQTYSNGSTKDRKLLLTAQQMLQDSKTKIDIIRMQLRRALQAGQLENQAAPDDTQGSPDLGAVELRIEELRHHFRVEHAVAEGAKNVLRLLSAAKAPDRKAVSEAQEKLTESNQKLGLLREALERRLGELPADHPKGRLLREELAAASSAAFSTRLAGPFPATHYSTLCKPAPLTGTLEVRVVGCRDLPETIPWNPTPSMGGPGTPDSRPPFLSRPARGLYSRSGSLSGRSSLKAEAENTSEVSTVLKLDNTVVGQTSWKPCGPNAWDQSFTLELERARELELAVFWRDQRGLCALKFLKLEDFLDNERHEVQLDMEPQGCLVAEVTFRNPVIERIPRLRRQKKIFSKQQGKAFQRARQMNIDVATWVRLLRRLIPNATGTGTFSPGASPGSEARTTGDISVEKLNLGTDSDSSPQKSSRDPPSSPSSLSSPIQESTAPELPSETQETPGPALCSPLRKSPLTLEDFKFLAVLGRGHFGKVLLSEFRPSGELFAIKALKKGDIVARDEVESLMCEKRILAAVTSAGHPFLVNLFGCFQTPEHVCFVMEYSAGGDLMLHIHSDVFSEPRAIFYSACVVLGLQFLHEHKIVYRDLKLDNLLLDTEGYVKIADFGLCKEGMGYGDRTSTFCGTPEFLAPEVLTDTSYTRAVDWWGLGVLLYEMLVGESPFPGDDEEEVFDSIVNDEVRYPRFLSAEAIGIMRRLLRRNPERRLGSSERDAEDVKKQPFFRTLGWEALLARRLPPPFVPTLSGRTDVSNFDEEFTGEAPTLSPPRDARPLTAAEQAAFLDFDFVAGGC
# Assay: Inhibition of PKN1 (unknown origin) at 10 uM
# Settings: not given
row,inhibition [%],SMILES
1,11,Oc1ccc(C2=NN(c3ccc(Cl)cc3)C(c3ccc(Cl)cc3)C2)cc1O (stereo not drawn)

# Target: Protein kinase C beta type (Homo sapiens) (UniProt P05771)
# Assay: Inhibition of PKCbeta2 (unknown origin) at 10 uM
# Settings: not given
row,inhibition,SMILES
1,inactive,Oc1ccc(C2=NN(c3ccc(Cl)cc3)C(c3ccc(Cl)cc3)C2)cc1O (stereo not drawn)

# Target: T4, 3-phosphoinositide-dependent protein kinase 1 (Homo sapiens) (UniProt O15530)
# T4 sequence (whole entry): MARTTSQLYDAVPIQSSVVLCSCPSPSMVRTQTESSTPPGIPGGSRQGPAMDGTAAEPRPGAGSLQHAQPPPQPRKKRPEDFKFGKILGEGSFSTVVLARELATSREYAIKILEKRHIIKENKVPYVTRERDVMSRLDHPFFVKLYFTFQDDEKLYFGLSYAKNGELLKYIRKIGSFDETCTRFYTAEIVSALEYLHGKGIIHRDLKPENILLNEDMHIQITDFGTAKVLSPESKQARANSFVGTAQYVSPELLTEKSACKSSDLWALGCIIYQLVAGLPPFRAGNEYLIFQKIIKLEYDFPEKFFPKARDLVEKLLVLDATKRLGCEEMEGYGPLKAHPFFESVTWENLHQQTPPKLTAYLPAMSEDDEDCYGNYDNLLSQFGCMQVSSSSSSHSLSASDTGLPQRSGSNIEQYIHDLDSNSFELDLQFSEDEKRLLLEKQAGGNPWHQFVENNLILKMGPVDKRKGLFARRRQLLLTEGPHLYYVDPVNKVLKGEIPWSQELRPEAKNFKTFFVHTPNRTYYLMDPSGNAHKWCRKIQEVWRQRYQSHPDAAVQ
# Assay: Inhibition of PDK1 (unknown origin) at 10 uM
# Settings: not given
row,inhibition [%],SMILES
1,1,Oc1ccc(C2=NN(c3ccc(Cl)cc3)C(c3ccc(Cl)cc3)C2)cc1O (stereo not drawn)
